{
  "source": "ChEMBL document CHEMBL1147667",
  "about": "“Synthesis and structure-activity relationship study of antidiabetic penta-O-galloyl-D-glucopyranose and its analogues” (2006)",
  "data": [
    {"system": "3T3-L1", "assay": "[1-3H]-2-deoxy-D-glucose uptake in 3T3 L1 adipocytes", "type": "functional, Mus musculus", "set-up": "reference not given here", "units": {"Activity": "Bq"}, "values": [
      {"compound": "O=C(OC[C@H]1O[C@@H](OC(=O)c2cc(O)cc(O)c2)[C@H](OC(=O)c2cc(O)cc(O)c2)[C@@H](OC(=O)c2cc(O)cc(O)c2)[C@@H]1OC(=O)c1cc(O)cc(O)c1)c1cc(O)cc(O)c1", "Activity": 30},
      {"compound": "O=C(O[C@H]1O[C@H](CO)[C@@H](OC(=O)c2cc(O)c(O)c(O)c2)[C@H](OC(=O)c2cc(O)c(O)c(O)c2)[C@H]1OC(=O)c1cc(O)c(O)c(O)c1)c1cc(O)c(O)c(O)c1", "Activity": 143},
      {"compound": "O=C(O[C@H]1O[C@H](CCl)[C@@H](OC(=O)c2cc(O)c(O)c(O)c2)[C@H](OC(=O)c2cc(O)c(O)c(O)c2)[C@H]1OC(=O)c1cc(O)c(O)c(O)c1)c1cc(O)c(O)c(O)c1", "Activity": 181},
      {"compound": "O=C(OC[C@H]1O[C@H](OC(=O)c2cc(O)c(O)c(O)c2)[C@H](OC(=O)c2cc(O)c(O)c(O)c2)[C@@H](OC(=O)c2cc(O)c(O)c(O)c2)[C@@H]1OC(=O)c1cc(O)c(O)c(O)c1)c1cc(O)c(O)c(O)c1", "Activity": 145},
      {"compound": "O=C(OC[C@H]1O[C@H](OC(=O)c2cc(O)cc(O)c2)[C@H](OC(=O)c2cc(O)cc(O)c2)[C@@H](OC(=O)c2cc(O)cc(O)c2)[C@@H]1OC(=O)c1cc(O)cc(O)c1)c1cc(O)cc(O)c1", "Activity": 16},
      {"compound": "O=C(OC[C@H]1O[C@@H](OC(=O)c2cc(O)c(O)c(O)c2)[C@H](OC(=O)c2cc(O)c(O)c(O)c2)[C@@H](OC(=O)c2cc(O)c(O)c(O)c2)[C@H]1OC(=O)c1cc(O)c(O)c(O)c1)c1cc(O)c(O)c(O)c1", "Activity": 19},
      {"compound": "O=C(OC[C@H]1O[C@@H](OC(=O)c2ccc(O)cc2)[C@H](OC(=O)c2ccc(O)cc2)[C@@H](OC(=O)c2ccc(O)cc2)[C@@H]1OC(=O)c1ccc(O)cc1)c1ccc(O)cc1", "Activity": 27},
      {"compound": "O=C(OC[C@H]1O[C@@H](OC(=O)c2cc(O)c(O)c(O)c2)[C@H](OC(=O)c2cc(O)c(O)c(O)c2)[C@H](OC(=O)c2cc(O)c(O)c(O)c2)[C@@H]1OC(=O)c1cc(O)c(O)c(O)c1)c1cc(O)c(O)c(O)c1", "Activity": 34},
      {"compound": "C[C@H]1O[C@@H](OC(=O)c2cc(O)c(O)c(O)c2)[C@H](OC(=O)c2cc(O)c(O)c(O)c2)[C@@H](OC(=O)c2cc(O)c(O)c(O)c2)[C@@H]1OC(=O)c1cc(O)c(O)c(O)c1", "Activity": 15},
      {"compound": "O=C(OC[C@H]1O[C@H](OC(=O)c2cc(O)c(O)c(O)c2)C[C@@H](OC(=O)c2cc(O)c(O)c(O)c2)[C@@H]1OC(=O)c1cc(O)c(O)c(O)c1)c1cc(O)c(O)c(O)c1", "Activity": 29},
      {"compound": "O=C(OC[C@@H]1C[C@H](OC(=O)c2cc(O)c(O)c(O)c2)[C@@H](OC(=O)c2cc(O)c(O)c(O)c2)[C@H](OC(=O)c2cc(O)c(O)c(O)c2)O1)c1cc(O)c(O)c(O)c1", "Activity": 30},
      {"compound": "O=C(OC[C@H]1O[C@@H](OC(=O)c2cc(O)c(O)c(O)c2)C[C@@H](OC(=O)c2cc(O)c(O)c(O)c2)[C@@H]1OC(=O)c1cc(O)c(O)c(O)c1)c1cc(O)c(O)c(O)c1", "Activity": 15},
      {"compound": "O=C(O[C@@H]1OC[C@@H](OC(=O)c2cc(O)c(O)c(O)c2)[C@H](OC(=O)c2cc(O)c(O)c(O)c2)[C@@H]1OC(=O)c1cc(O)c(O)c(O)c1)c1cc(O)c(O)c(O)c1", "Activity": 7},
      {"compound": "O=C(OC[C@H]1O[C@H](OC(=O)c2ccc(O)c(O)c2)[C@H](OC(=O)c2ccc(O)c(O)c2)[C@@H](OC(=O)c2ccc(O)c(O)c2)[C@@H]1OC(=O)c1ccc(O)c(O)c1)c1ccc(O)c(O)c1", "Activity": 10},
      {"compound": "O=C(OC[C@H]1O[C@H](OC(=O)c2cc(O)c(O)c(O)c2)[C@H](OC(=O)c2cc(O)c(O)c(O)c2)[C@H](OC(=O)c2cc(O)c(O)c(O)c2)[C@@H]1OC(=O)c1cc(O)c(O)c(O)c1)c1cc(O)c(O)c(O)c1", "Activity": 23},
      {"compound": "O=C(OC[C@H]1O[C@@H](OC(=O)c2cc(O)c(O)c(O)c2)[C@@H](OC(=O)c2cc(O)c(O)c(O)c2)[C@@H](OC(=O)c2cc(O)c(O)c(O)c2)[C@@H]1OC(=O)c1cc(O)c(O)c(O)c1)c1cc(O)c(O)c(O)c1", "Activity": 19},
      {"compound": "CC(=O)OC[C@H]1O[C@H](OC(C)=O)[C@H](OC(C)=O)[C@@H](OC(C)=O)[C@@H]1OC(C)=O", "Activity": 31},
      {"compound": "O=C(O[C@H]1OC[C@@H](OC(=O)c2cc(O)c(O)c(O)c2)[C@H](OC(=O)c2cc(O)c(O)c(O)c2)[C@H]1OC(=O)c1cc(O)c(O)c(O)c1)c1cc(O)c(O)c(O)c1", "Activity": 124},
      {"compound": "O=C(O[C@H]1OC[C@@H](OC(=O)c2cc(O)c(O)c(O)c2)[C@H](OC(=O)c2cc(O)c(O)c(O)c2)[C@@H]1OC(=O)c1cc(O)c(O)c(O)c1)c1cc(O)c(O)c(O)c1", "Activity": 21},
      {"compound": "O=C(OC[C@H]1O[C@@H](OC(=O)c2ccc(O)c(O)c2)[C@H](OC(=O)c2ccc(O)c(O)c2)[C@@H](OC(=O)c2ccc(O)c(O)c2)[C@@H]1OC(=O)c1ccc(O)c(O)c1)c1ccc(O)c(O)c1", "Activity": 20},
      {"compound": "O=C(OC[C@H]1O[C@H](OC(=O)c2ccccc2)[C@H](OC(=O)c2ccccc2)[C@@H](OC(=O)c2ccccc2)[C@@H]1OC(=O)c1ccccc1)c1ccccc1", "Activity": 34},
      {"compound": "O=C(O[C@@H]1OC[C@@H](OC(=O)c2cc(O)c(O)c(O)c2)[C@H](OC(=O)c2cc(O)c(O)c(O)c2)[C@H]1OC(=O)c1cc(O)c(O)c(O)c1)c1cc(O)c(O)c(O)c1", "Activity": 21},
      {"compound": "O=C(OC[C@@H]1C[C@H](OC(=O)c2cc(O)c(O)c(O)c2)[C@@H](OC(=O)c2cc(O)c(O)c(O)c2)[C@@H](OC(=O)c2cc(O)c(O)c(O)c2)O1)c1cc(O)c(O)c(O)c1", "Activity": 28},
      {"compound": "O=C(OC[C@H]1OC[C@H](OC(=O)c2cc(O)c(O)c(O)c2)[C@@H](OC(=O)c2cc(O)c(O)c(O)c2)[C@@H]1OC(=O)c1cc(O)c(O)c(O)c1)c1cc(O)c(O)c(O)c1", "Activity": 5},
      {"compound": "O=C(OC[C@H]1O[C@H](OC(=O)c2ccc(O)cc2)[C@H](OC(=O)c2ccc(O)cc2)[C@@H](OC(=O)c2ccc(O)cc2)[C@@H]1OC(=O)c1ccc(O)cc1)c1ccc(O)cc1", "Activity": 30},
      {"compound": "O=C(O[C@H]1OC[C@@H](OC(=O)c2cc(O)c(O)c(O)c2)[C@@H](OC(=O)c2cc(O)c(O)c(O)c2)[C@H]1OC(=O)c1cc(O)c(O)c(O)c1)c1cc(O)c(O)c(O)c1", "Activity": 10},
      {"compound": "C[C@H]1O[C@H](OC(=O)c2cc(O)c(O)c(O)c2)[C@H](OC(=O)c2cc(O)c(O)c(O)c2)[C@@H](OC(=O)c2cc(O)c(O)c(O)c2)[C@@H]1OC(=O)c1cc(O)c(O)c(O)c1", "Activity": 115},
      {"compound": "O=C(OC[C@H]1O[C@H](OC(=O)c2cc(O)c(O)c(O)c2)[C@@H](OC(=O)c2cc(O)c(O)c(O)c2)[C@@H](OC(=O)c2cc(O)c(O)c(O)c2)[C@@H]1OC(=O)c1cc(O)c(O)c(O)c1)c1cc(O)c(O)c(O)c1", "Activity": 20},
      {"compound": "O=C(OC[C@H]1O[C@H](OC(=O)c2cc(O)c(O)c(O)c2)[C@H](OC(=O)c2cc(O)c(O)c(O)c2)C[C@@H]1OC(=O)c1cc(O)c(O)c(O)c1)c1cc(O)c(O)c(O)c1", "Activity": 11},
      {"compound": "O=C(OC[C@H]1O[C@@H](OC(=O)c2cc(O)c(O)c(O)c2)[C@H](OC(=O)c2cc(O)c(O)c(O)c2)C[C@@H]1OC(=O)c1cc(O)c(O)c(O)c1)c1cc(O)c(O)c(O)c1", "Activity": 7},
      {"compound": "O=C(O[C@@H]1OC[C@@H](OC(=O)c2cc(O)c(O)c(O)c2)[C@@H](OC(=O)c2cc(O)c(O)c(O)c2)[C@H]1OC(=O)c1cc(O)c(O)c(O)c1)c1cc(O)c(O)c(O)c1", "Activity": 12},
      {"compound": "OC[C@H]1O[C@H](O)[C@H](O)[C@@H](O)[C@@H]1O", "Activity": 34},
      {"compound": "O=C(OC[C@H]1O[C@H](OC(=O)c2cc(O)c(O)c(O)c2)[C@H](OC(=O)c2cc(O)c(O)c(O)c2)[C@@H](OC(=O)c2cc(O)c(O)c(O)c2)[C@H]1OC(=O)c1cc(O)c(O)c(O)c1)c1cc(O)c(O)c(O)c1", "Activity": 22},
      {"compound": "CC(=O)OC[C@H]1O[C@@H](OC(C)=O)[C@H](OC(C)=O)[C@@H](OC(C)=O)[C@@H]1OC(C)=O", "Activity": 24},
      {"compound": "O=C(OC[C@H]1OC(OC(=O)c2cc(O)c(O)c(O)c2)[C@H](OC(=O)c2cc(O)c(O)c(O)c2)[C@@H](OC(=O)c2cc(O)c(O)c(O)c2)[C@@H]1OC(=O)c1cc(O)c(O)c(O)c1)c1cc(O)c(O)c(O)c1", "note": "(single isomer, unassigned) [PENTAGALLOYL GLUCOSE]", "Activity": 107},
      {"compound": "O=C(OC1OC[C@H](OC(=O)c2cc(O)c(O)c(O)c2)[C@H](OC(=O)c2cc(O)c(O)c(O)c2)[C@H]1OC(=O)c1cc(O)c(O)c(O)c1)c1cc(O)c(O)c(O)c1", "note": "(single isomer, unassigned; 63)", "Activity": 23},
      {"compound": "O=C(OC1OC[C@H](OC(=O)c2cc(O)c(O)c(O)c2)[C@H](OC(=O)c2cc(O)c(O)c(O)c2)[C@H]1OC(=O)c1cc(O)c(O)c(O)c1)c1cc(O)c(O)c(O)c1", "note": "(single isomer, unassigned; 65)", "Activity": 14},
      {"compound": "O=c1oc2c(O)c(O)cc3c(=O)oc4c(O)c(O)cc1c4c23", "note": "[ELLAGIC ACID]", "Activity": 27},
      {"compound": "COC(=O)c1cc(O)c(O)c(O)c1", "note": "[GALLIC ACID METHYL ESTER]", "Activity": 20},
      {"compound": "O=C(O)c1cc(O)c(O)c(O)c1", "note": "[GALLIC ACID]", "Activity": 31}
    ]}
  ]
}
